Results: patent US20260191815A1, “THIOACRYLAMIDE DERIVATIVES FOR USE IN THE PREVENTION OR TREATMENT OF LIVER FIBROSIS” (CMR CUREDIAB METABOLIC RESEARCH GMBH, priority 2022, published 2026)

What was measured:
[1] = system: caspase 3/7 activity in HepG2 cells; experiment: Caspase 3/7 activity provoked by palmitate in HepG2 cells; assay type: cell-based
Method: (§1) The potential protective effect of HK1 and HK3 on caspase 3/7 activity in HepG2 cells and primary human hepatocytes was analysed.
(§2) HepG2 cells were obtained from Merck (Darmstadt, Germany) (ECACC-certified), while primary human hepatocytes were obtained from Thermo Fisher Scientific (Waltham, MA, USA), and all were cultured according to the instructions of the respective manufacturers. During experiments, cells were cultured in serum-free medium. Unless otherwise stated, cells were treated with 200 μM bovine serum albumin (BSA)-conjugated palmitate (Cayman Chemicals, Ann Arbor, MI) alone or in combination with 10 μM HK1 (Taros Chemicals GmbH & Co. KG, Dortmund, Germany) and HK3 (Taros Chemicals GmbH & Co. KG, Dortmund, Germany) 30 min prior to palmitate exposure for 24 hours. The vehicle BSA was used according to the palmitate concentration and DMSO according to HK1 and HK3 concentration. 2 μM Staurosporine (Abcam, Cambridge, GB) was used as a positive and 100 μM Caspase 3/7 inhibitor (CI) (Cayman Chemicals) as a negative control.
(§3) Differences were analysed by one-way ANOVA.
A hepatoprotective effect was determined as described in Example 4. A treatment was performed with HK1, HK2, HK3, HK4 or HK5 (100 nM) either alone or in combination with palmitate (200 μM).
Differences were analysed by one-way ANOVA, n=4.

[2] = system: caspase 3/7 activity in primary human hepatocytes; experiment: Caspase 3/7 activity provoked by palmitate in primary human hepatocytes; assay type: cell-based
Method: as §1, §2, §3

[3] = system: alpha-1 type 1 collagen (COL1A1) protein in LX2 cells; experiment: Simple Western of COL1A1 protein in TGF-β1-stimulated LX2 hepatic stellate cells; assay type: cell-based, human; settings: 5 ng/ml TGF-β1, 24 h, LX2 cells
Method: (§4) The human hepatic stellate cell line LX2 was purchased from Merck. The cells were used up to passage ten and incubated under sterile conditions at 37° C. and 5% CO2. The cells were cultivated in medium containing Dulbecco's Modified Eagle's Medium with 4.5 g/l glucose (ThermoFisher), 4 mmol/l glutamine (ThermoFisher), 2% fetal bovine serum (FBS) (Merck), 100 U/ml penicillin and 100 μg/ml streptomycin (Merck). After 2 days, LX2 cells were starved for FBS for 24 h and then pretreated with 10 μM HK1 (Taros Chemicals GmbH & Co. KG) or 10 μM HK3 (Taros Chemicals GmbH & Co. KG) for 30 min. Subsequently, 5 ng/ml recombinant TGF-β1 (R&D Systems, Minneapolis, MN, USA) was added to the hepatic stellate cell cultures for 24 h. LX2 cells were also incubated with 5 ng/ml TGF-β1 alone as positive control for the hepatic stellate cell activation. Recombinant TGF-β1 was dissolved in sterile 4 mmol/l HCl (Merck) containing 0.1% bovine serum albumin (Roth Karlsruhe, Germany) as carrier protein. HK1 and HK3 were dissolved in sterile dimethyl sulfoxide (DMSO) (Sigma-Aldrich, Munich, Germany). Stimulations with 10 μM HK1, 10 μM HK3 and the corresponding vehicles (HCl and DMSO with or without HCl) alone for 24 h were also included as treatments.
(§5) For the measurement of the pro-fibrotic proteins, Western Blotting was performed. Proteins were extracted from whole cell lysate of LX2 cells using RIPA lysis buffer containing 50 mmol/l Tris-HCl (pH 8.0), 150 mmol/l NaCl, 1% IGEPAL® CA-630, 0.5% sodium deoxycholate, 0.1% sodium dodecyl sulfate, 10% PhosSTOP Phosphatase Inhibitor Cocktail (Roche, Basel, Switzerland) and 10% cOmplete Mini Protease Inhibitor Cocktail (Roche). Lysates were centrifuged at 14850×g for 15 min at 4° C. Then, the total protein content of the lysates was determined using a bicinchoninic acid protein assay (ThermoFisher Scientific) in accordance with the manufacturer's instructions. The quantification of protein abundance was performed by Simple Western size-based assays using a 12-230 kDa and 66-440 kDa Separation Module (ProteinSimple, San Jose, CA, USA) according to the manufacturer's instructions. This fully automated Western blotting system is based on a capillary electrophoresis technology. The separation, immobilization to the capillary wall via a proprietary, photoactivated capture chemistry and immunodetection of the proteins using a horseradish peroxidase (HRP)-conjugated secondary antibody and chemiluminescent substrate take place directly in the capillary without gel separation and transfer steps to blotting paper. The chemiluminescence is measured at multiple exposure times and automatically quantified by the Compass for Simple Western software (version 4.1.0) (ProteinSimple). The chemiluminescent signal for immunodetected proteins, which can be represented as an electropherogram or virtual blot-like image, is automatically quantified by calculation of the area under the curve of the peak.
(§6) The software reports the molecular weight, the area (in an arbitrary unit and in percent) and signal to noise ratio for each protein detected. The primary antibodies for the recognition of endogenous levels of total alpha-1 type 1 collagen (COL1A1) protein (#72026) and total fibronectin 1 (FN1) protein (#26836) were purchased from Cell Signaling Technology (Danvers, MA, USA). The anti-rabbit HRP-linked secondary antibody was from ProteinSimple. […]
(§7) Differences were analysed by one-way ANOVA followed by the Tukey method as correction for multiple testing.

[4] = system: fibronectin 1 (FN1) protein in LX2 cells; experiment: Simple Western of FN1 protein in TGF-β1-stimulated LX2 hepatic stellate cells; assay type: cell-based, human; settings: 5 ng/ml TGF-β1, 24 h, LX2 cells
Method: as §4, §5, §6, §7

[5] = system: leukaemia inhibitory factor (LIF) secretion by LX2 cells; experiment: Olink Inflammation immunoassay of LX2 supernatants: LIF; assay type: cell-based, human; settings: 5 ng/ml TGF-β1
Method: as §4, with “Recombinant TGF-β1 was dissolved in sterile 4 mmol/l HCl (Merck) containing 0.1% bovine serum albumin (Roth Karlsruhe, Germany) as carrier protein. HK1 and HK3 were dissolved in sterile dimethyl sulfoxide (DMSO) (Sigma-Aldrich, Munich, Germany). Stimulations with 10 μM HK1, 10 μM HK3 and the corresponding vehicles (HCl and DMSO with or without HCl) alone for 24 h were also included as treatments.” left out
(§8) LX2 cells were cultured and treated as described in Example 1. […] This protein quantification method is based on a proximity extension assay technology, which combines a dual-recognition immunoassay using two matched antibodies labelled with DNA oligonucleotides, with a polymerase chain reaction (PCR) amplification and a microfluidic quantitative real-time PCR as readout. […]
as §7

[6] = system: vascular endothelial growth factor A (VEGFA) secretion by LX2 cells; experiment: Olink Inflammation immunoassay of LX2 supernatants: VEGFA; assay type: cell-based, human; settings: 5 ng/ml TGF-β1
Method: as §4, with “Recombinant TGF-β1 was dissolved in sterile 4 mmol/l HCl (Merck) containing 0.1% bovine serum albumin (Roth Karlsruhe, Germany) as carrier protein. HK1 and HK3 were dissolved in sterile dimethyl sulfoxide (DMSO) (Sigma-Aldrich, Munich, Germany). Stimulations with 10 μM HK1, 10 μM HK3 and the corresponding vehicles (HCl and DMSO with or without HCl) alone for 24 h were also included as treatments.” left out
as §8, §7

[7] = system: interleukin-6 (IL-6) secretion by LX2 cells; experiment: Olink Inflammation immunoassay of LX2 supernatants: IL-6; assay type: cell-based, human; settings: 5 ng/ml TGF-β1
Method: as §4
LX2 cells were cultured and treated as described in Example 1. After the incubation time, the supernatants of LX2 cells were collected, centrifuged for 10 min at 2000×g at 4° C. and transferred to new tubes to measure 92 proteins in the cell culture supernatants simultaneously using the Olink Inflammation multiplex immunoassay (Olink proteomics, Uppsala, Sweden). This panel covers 92 proteins, including pro- and anti-inflammatory cytokines, growth factors, chemokines and factors involved in biological processes such as apoptosis, inflammatory and immune response, cell adhesion, chemotaxis, or fibrosis. This protein quantification method is based on a proximity extension assay technology, which combines a dual-recognition immunoassay using two matched antibodies labelled with DNA oligonucleotides, with a polymerase chain reaction (PCR) amplification and a microfluidic quantitative real-time PCR as readout. The biomarker concentrations are given as normalized protein expression (NPX) values, which were generated from the threshold cycle values from the qPCR, and represent an arbitrary unit on a log 2 scale.
as §7

Compound: COC[C@@H]1CCCN1S(=O)(=O)c1ccc2c(c1)C(=O)C(=O)N2 [Caspase 3/7 inhibitor, reference compound]
- caspase 3/7 activity, % of control ([1]; 100 μM caspase 3/7 inhibitor + palmitate 200 μM): 29.65%±24.56%
- caspase 3/7 activity, % of control ([2]; 100 μM inhibitor + palmitate 200 μM): 21.23%±4.33%

Compound: CN[C@@H]1C[C@H]2O[C@@](C)([C@@H]1OC)n1c3ccccc3c3c4c(c5c6ccccc6n2c5c31)C(=O)NC4 [Staurosporine, reference compound]
- activity at 2 µM ([1]; Homo sapiens, 2 μM, positive control): 687%

Compound: CCCCCCCCCCCCCCCC(=O)O [palmitate, reference compound]
- activity at 200 µM ([1]; Homo sapiens, palmitate 200 μM alone, 24 h, read-out: caspase 3/7 activity, % of control): 429%
- activity at 200 µM ([2]; Hepatocyte, palmitate 200 μM alone, read-out: caspase 3/7 activity, % of control): 129%

Compound: TGF-β1: recombinant TGF-β1 (R&D Systems), positive control for the hepatic stellate cell activation
- increase of protein levels of COL1A1 compared to untreated cells [3]: 2.6±0.2 fold
- increase of protein levels of FN1 compared to untreated cells [4]: 3.0±0.2 fold
- increased secretion of LIF compared to untreated LX2 cells [5]: 35.40±9.76 fold
- increased secretion of VEGFA compared to untreated LX2 cells [6]: 13.89±2.40 fold
- increased secretion of IL-6 compared to untreated LX2 cells [7]: 4.99±2.01 fold
